Kd data for 2 molecules are collected here from publication PMC12520410, “A FtsZ inhibitor-acinetobactin conjugate with enhanced cellular uptake in Acinetobacter baumannii acts synergistically in combination with PBP3-targeting antibiotics” (PLOS One, 2025).

What all share (format): binding
In one experiment the target is BauA (Acinetobacter baumannii, UniProt Q76HJ9). Kind of experiment: fluorescence anisotropy titration of the RUP7_2-Fe3+ complex with purified BauA. Background: In fluorescence polarisation assays a small probe gives low polarisation when free and higher when bound to something large.
BauA, sequence (Q76HJ9 entry or part of it): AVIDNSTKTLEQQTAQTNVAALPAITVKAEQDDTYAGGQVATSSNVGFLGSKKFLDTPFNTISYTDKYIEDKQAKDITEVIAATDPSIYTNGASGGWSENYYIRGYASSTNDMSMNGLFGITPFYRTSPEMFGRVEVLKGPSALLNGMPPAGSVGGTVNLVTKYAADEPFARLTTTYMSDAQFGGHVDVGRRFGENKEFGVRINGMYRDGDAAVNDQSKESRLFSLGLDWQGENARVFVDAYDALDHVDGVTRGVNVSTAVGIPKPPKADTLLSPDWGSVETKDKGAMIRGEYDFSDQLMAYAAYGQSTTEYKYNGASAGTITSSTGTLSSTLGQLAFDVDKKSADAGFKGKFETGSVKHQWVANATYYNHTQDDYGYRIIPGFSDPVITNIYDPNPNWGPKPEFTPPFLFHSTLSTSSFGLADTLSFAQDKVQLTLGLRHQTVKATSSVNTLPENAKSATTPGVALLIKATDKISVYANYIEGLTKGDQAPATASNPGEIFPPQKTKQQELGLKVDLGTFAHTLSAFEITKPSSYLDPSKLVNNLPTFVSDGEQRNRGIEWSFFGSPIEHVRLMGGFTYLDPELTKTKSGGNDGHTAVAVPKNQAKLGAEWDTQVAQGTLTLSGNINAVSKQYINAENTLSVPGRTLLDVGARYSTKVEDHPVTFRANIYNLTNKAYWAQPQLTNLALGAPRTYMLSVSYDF
The target in experiment [1] is T1, AbFtsZ (A. baumannii FtsZ) (Acinetobacter baumannii, UniProt V5V8B6). Kind of experiment: fluorescence anisotropy titration; also inhibits GTP-dependent polymerization (light scattering).
T1 sequence (V5V8B6 entry or part of it): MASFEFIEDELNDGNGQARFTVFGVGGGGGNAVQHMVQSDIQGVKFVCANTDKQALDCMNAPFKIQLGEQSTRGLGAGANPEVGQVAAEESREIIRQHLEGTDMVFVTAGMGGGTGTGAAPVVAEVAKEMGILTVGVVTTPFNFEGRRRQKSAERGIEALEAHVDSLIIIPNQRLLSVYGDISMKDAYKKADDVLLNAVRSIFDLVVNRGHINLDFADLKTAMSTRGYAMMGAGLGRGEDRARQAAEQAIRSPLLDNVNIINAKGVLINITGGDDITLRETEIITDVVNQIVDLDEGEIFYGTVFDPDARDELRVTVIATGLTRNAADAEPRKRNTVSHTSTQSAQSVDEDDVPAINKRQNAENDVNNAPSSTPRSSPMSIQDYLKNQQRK
Experiment [2] concerns the target T1, AbFtsZ (A. baumannii FtsZ). Kind of experiment: fluorescence anisotropy titration of RUP2 with purified AbFtsZ.

Molecules are shown by their SMILES.

For orientation: Kd means the concentration at which binding is half-saturated. Higher therefore signals lower affinity. As to `C[C@@H]1ON(CCc2cn(CCC(Oc3ccc(F)c(C(N)=O)c3F)c3nc(-c4ccc(C(F)(F)F)cc4)c(Br)o3)cn2)C(=O)[C@H]1NC(=O)c1cccc(O)c1O` (stereo partly drawn) [RUP7], the values for the Kd (at BauA; in experiment [1]) were 1800 ± 400 nM and 26500 ± 3700 nM, respectively. Consider `NC(=O)c1c(F)ccc(OC(CCO)c2nc(-c3ccc(C(F)(F)F)cc3)c(Br)o2)c1F` (stereo not drawn) [RUP2], for which the Kd in experiment [2] worked out at 230 ± 90 nM.
